# Assay results from ChEMBL document CHEMBL4052759, “Discovery of DS79182026: A potent orally active hepcidin production inhibitor” (Bioorg Med Chem Lett, 2017).
# Tests used:
# [1] = target: Serine/threonine-protein kinase MARK1 (Homo sapiens) (UniProt Q9P0L2); assay: Inhibition of MARK1 (unknown origin) at 0.49 uM relative to control
# [2] = target: Casein kinase I isoform delta (Homo sapiens) (UniProt P48730); assay: Inhibition of CK1-delta (unknown origin) at 0.49 uM relative to control
# [3] = target: Serine/threonine-protein kinase PAK 4 (Homo sapiens) (UniProt O96013); assay: Inhibition of PAK4 (unknown origin) at 0.49 uM relative to control
# [4] = target: Tyrosine-protein kinase Srms (Homo sapiens) (UniProt Q9H3Y6); assay: Inhibition of SRM (SRMS) (unknown origin) at 0.49 uM relative to control
# [5] = target: Casein kinase I isoform gamma-3 (Homo sapiens) (UniProt Q9Y6M4); assay: Inhibition of CSNK1G3 (unknown origin) at 0.49 uM relative to control
# Chain of Casein kinase I isoform gamma-3 (Homo sapiens) (Q9Y6M4 whole entry, looked up, canonical isoform): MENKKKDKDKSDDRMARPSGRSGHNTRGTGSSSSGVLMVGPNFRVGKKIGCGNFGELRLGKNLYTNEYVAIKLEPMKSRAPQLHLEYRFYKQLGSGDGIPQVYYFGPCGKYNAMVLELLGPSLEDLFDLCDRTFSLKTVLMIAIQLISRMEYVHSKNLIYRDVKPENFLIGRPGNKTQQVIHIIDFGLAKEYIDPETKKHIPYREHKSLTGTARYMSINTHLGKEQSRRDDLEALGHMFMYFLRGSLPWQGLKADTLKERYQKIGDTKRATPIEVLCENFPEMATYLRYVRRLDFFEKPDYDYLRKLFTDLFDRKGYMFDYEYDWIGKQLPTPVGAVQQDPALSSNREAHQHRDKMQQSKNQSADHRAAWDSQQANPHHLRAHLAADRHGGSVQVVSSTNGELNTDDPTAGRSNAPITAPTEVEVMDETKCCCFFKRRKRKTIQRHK
# [6] = target: Serine/threonine-protein kinase Nek9 (Homo sapiens) (UniProt Q8TD19); assay: Inhibition of NEK9 (unknown origin) at 0.49 uM relative to control
# [7] = target: Dual specificity protein kinase CLK3 (Homo sapiens) (UniProt P49761); assay: Inhibition of CLK3 (unknown origin) at 0.49 uM relative to control
# [8] = target: RAC-gamma serine/threonine-protein kinase (Homo sapiens) (UniProt Q9Y243); assay: Inhibition of AKT3 (unknown origin) at 0.49 uM relative to control
# [9] = target: Dual specificity protein kinase CLK2 (Homo sapiens) (UniProt P49760); assay: Inhibition of CLK2 (unknown origin) at 0.49 uM relative to control
# [10] = target: MAP/microtubule affinity-regulating kinase 3 (Homo sapiens) (UniProt P27448); assay: Inhibition of c-TAK1 (unknown origin) at 0.49 uM relative to control
# [11] = target: Ephrin type-A receptor 4 (Homo sapiens) (UniProt P54764); assay: Inhibition of EPHA4 (unknown origin) at 0.49 uM relative to control
# [12] = target: Tyrosine-protein kinase Fer (Homo sapiens) (UniProt P16591); assay: Inhibition of Fer (unknown origin) at 0.49 uM relative to control
# [13] = target: Casein kinase I isoform alpha (Homo sapiens) (UniProt P48729); assay: Inhibition of CSNK1A1 (unknown origin) at 0.49 uM relative to control
# [14] = target: Protein kinase C delta type (Homo sapiens) (UniProt Q05655); assay: Inhibition of PKC-delta (unknown origin) at 0.49 uM relative to control
# Chain of Protein kinase C delta type (Homo sapiens) (Q05655 whole entry, looked up): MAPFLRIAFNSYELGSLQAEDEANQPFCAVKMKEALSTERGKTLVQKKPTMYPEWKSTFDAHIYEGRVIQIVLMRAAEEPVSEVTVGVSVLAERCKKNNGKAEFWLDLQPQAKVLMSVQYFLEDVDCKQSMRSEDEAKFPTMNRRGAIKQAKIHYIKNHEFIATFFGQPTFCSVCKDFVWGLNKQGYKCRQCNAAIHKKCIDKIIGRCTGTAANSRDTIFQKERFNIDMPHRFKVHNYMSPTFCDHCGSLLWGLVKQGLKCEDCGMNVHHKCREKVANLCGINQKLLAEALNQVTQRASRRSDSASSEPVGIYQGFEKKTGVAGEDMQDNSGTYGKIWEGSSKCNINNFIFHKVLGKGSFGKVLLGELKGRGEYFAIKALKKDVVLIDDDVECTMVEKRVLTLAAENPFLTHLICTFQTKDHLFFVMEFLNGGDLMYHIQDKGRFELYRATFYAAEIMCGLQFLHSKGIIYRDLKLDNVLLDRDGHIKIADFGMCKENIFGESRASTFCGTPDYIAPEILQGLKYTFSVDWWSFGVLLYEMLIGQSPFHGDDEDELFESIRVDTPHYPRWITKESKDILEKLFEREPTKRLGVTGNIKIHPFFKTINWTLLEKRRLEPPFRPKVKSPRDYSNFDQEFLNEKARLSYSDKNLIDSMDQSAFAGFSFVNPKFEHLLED
# [15] = target: Tyrosine-protein kinase Lyn (Homo sapiens) (UniProt P07948); assay: Inhibition of LYN (unknown origin) at 0.49 uM relative to control
# [16] = target: Casein kinase I isoform gamma-3 (Homo sapiens) (UniProt Q9Y6M4); assay: Inhibition of CSNK1G3 (unknown origin) at 0.45 uM relative to control
# [17] = target: Serine/threonine-protein kinase MARK1 (Homo sapiens) (UniProt Q9P0L2); assay: Inhibition of MARK1 (unknown origin) at 0.45 uM relative to control
# [18] = target: Dual specificity tyrosine-phosphorylation-regulated kinase 1B (Homo sapiens) (UniProt Q9Y463); assay: Inhibition of DYRK1B (unknown origin) at 0.45 uM relative to control
# [19] = target: Serine/threonine-protein kinase 25 (Homo sapiens) (UniProt O00506); assay: Inhibition of YSK (unknown origin) at 0.45 uM relative to control
# Chain of Serine/threonine-protein kinase 25 (Homo sapiens) (O00506 whole entry, looked up): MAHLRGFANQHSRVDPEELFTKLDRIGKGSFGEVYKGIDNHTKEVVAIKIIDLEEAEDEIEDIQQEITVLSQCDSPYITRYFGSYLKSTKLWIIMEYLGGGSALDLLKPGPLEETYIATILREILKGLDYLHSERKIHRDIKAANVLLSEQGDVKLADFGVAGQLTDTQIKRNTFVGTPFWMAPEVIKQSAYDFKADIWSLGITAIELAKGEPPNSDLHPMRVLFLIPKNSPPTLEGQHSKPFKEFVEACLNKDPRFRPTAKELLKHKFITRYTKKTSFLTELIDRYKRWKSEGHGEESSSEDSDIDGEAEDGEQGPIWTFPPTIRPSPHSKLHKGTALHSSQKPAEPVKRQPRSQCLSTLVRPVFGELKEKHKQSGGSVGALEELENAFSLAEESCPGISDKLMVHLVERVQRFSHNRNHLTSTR
# [20] = target: Cyclin-dependent kinase 9 (Homo sapiens) (UniProt P50750); assay: Inhibition of CDK9 (unknown origin) at 0.45 uM relative to control
# Chain of Cyclin-dependent kinase 9 (Homo sapiens) (P50750 whole entry): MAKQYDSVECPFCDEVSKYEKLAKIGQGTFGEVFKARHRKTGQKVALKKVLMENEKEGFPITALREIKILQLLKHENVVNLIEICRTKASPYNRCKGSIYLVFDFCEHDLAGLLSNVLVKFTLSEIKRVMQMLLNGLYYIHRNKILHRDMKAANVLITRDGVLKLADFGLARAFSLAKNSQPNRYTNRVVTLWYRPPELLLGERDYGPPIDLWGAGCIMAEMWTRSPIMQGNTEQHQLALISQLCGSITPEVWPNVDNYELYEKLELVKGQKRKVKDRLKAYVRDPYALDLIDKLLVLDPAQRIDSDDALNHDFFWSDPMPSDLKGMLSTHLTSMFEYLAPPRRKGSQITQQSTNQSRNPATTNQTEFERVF
# [21] = target: Serine/threonine-protein kinase pim-1 (Homo sapiens) (UniProt P11309); assay: Inhibition of PIM1 (unknown origin) at 0.45 uM relative to control
# [22] = target: Insulin-like growth factor 1 receptor (Homo sapiens) (UniProt P08069); assay: Inhibition of IGF1R (unknown origin) at 0.45 uM relative to control
# Chain of Insulin-like growth factor 1 receptor (Homo sapiens) (P08069 31-736 limits assumed): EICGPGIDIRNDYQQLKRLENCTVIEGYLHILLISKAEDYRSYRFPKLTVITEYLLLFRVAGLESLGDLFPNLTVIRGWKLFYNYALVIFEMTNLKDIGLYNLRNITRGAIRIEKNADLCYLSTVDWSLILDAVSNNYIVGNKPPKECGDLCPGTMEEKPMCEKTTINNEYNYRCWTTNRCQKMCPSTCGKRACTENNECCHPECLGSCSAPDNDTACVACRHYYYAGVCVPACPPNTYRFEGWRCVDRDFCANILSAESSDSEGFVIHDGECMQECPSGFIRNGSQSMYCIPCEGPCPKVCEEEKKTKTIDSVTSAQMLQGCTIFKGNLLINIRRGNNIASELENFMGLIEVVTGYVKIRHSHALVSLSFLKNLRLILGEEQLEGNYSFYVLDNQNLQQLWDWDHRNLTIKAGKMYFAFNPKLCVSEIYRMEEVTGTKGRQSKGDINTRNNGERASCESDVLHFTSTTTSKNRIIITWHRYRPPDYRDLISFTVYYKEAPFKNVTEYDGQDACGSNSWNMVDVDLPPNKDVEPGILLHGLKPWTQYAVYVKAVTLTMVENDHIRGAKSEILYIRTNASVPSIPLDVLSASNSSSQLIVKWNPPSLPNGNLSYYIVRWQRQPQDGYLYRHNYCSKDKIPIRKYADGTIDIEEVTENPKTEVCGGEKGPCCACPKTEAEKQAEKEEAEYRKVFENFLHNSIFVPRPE
# Chain of Insulin-like growth factor 1 receptor (Homo sapiens) (P08069 741-1367 limits assumed): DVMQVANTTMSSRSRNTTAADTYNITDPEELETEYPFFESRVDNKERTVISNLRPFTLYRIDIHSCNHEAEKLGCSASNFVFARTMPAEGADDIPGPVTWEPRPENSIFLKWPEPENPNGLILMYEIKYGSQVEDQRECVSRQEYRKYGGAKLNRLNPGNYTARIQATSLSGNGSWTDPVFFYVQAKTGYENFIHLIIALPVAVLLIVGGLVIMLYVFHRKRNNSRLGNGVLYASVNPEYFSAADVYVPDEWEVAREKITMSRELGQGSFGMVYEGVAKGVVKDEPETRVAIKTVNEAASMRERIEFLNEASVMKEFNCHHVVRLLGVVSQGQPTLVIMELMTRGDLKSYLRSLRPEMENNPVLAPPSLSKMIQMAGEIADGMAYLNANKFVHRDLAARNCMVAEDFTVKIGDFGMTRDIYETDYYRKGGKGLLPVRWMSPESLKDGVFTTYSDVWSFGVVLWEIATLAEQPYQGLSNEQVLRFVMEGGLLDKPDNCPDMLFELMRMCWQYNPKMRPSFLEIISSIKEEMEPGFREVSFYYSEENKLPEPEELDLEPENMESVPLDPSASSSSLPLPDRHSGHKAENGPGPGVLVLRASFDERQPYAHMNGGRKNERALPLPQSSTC
# [23] = test system: Proto-oncogene tyrosine-protein kinase receptor Ret (Homo sapiens), P07949 [V804L]; assay: Inhibition of Ret V804L mutant (unknown origin) at 0.45 uM relative to control
# [24] = target: Serine/threonine-protein kinase Nek1 (Homo sapiens) (UniProt Q96PY6); assay: Inhibition of NEK1 (unknown origin) at 0.45 uM relative to control
# [25] = target: Macrophage-stimulating protein receptor (Homo sapiens) (UniProt Q04912); assay: Inhibition of MST1R (unknown origin) at 0.45 uM relative to control
# [26] = target: Serine/threonine-protein kinase PAK 2 (Homo sapiens) (UniProt Q13177); assay: Inhibition of PAK2 (unknown origin) at 0.45 uM relative to control
# Chain of Serine/threonine-protein kinase PAK 2 (Homo sapiens) (Q13177 whole entry): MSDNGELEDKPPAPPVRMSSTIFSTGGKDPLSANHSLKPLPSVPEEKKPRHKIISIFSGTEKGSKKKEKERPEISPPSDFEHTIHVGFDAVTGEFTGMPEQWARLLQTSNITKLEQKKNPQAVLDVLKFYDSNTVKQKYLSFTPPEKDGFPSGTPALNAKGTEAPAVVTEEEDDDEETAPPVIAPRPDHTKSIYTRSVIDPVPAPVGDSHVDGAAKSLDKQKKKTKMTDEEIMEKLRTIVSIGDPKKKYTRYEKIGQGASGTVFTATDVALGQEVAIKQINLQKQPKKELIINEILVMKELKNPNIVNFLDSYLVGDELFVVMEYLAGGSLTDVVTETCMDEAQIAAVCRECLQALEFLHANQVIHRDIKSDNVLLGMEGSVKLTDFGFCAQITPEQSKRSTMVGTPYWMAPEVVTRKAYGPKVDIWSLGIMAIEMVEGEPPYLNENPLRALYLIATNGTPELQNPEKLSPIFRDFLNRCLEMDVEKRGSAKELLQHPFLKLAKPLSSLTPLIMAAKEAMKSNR
# [27] = target: Testis-specific serine/threonine-protein kinase 2 (Homo sapiens) (UniProt Q96PF2); assay: Inhibition of TSSK2 (unknown origin) at 0.45 uM relative to control
# [28] = target: T1, Serine/threonine-protein kinase Sgk1 (Homo sapiens) (UniProt O00141); assay: Inhibition of SGK1 (unknown origin) at 0.45 uM relative to control
# T1 sequence (whole entry): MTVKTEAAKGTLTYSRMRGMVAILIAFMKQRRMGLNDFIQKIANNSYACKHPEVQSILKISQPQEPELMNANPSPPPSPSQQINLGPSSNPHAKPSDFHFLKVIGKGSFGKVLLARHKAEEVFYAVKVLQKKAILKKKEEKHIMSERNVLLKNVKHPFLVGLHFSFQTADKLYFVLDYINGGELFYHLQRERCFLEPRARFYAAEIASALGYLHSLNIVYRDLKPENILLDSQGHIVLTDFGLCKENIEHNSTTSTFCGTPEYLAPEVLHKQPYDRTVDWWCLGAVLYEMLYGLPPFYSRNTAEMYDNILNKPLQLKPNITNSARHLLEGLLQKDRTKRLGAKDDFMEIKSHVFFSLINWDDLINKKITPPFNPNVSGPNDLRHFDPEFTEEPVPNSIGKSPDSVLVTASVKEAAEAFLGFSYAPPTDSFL
# [29] = target: Ephrin type-A receptor 5 (Homo sapiens) (UniProt P54756); assay: Inhibition of EPHA5 (unknown origin) at 0.45 uM relative to control
# [30] = test system: Proto-oncogene tyrosine-protein kinase receptor Ret (Homo sapiens), P07949 [M918T]; assay: Inhibition of RET M918T mutant (unknown origin) at 0.45 uM relative to control
# [31] = target: Mitogen-activated protein kinase 12 (Homo sapiens) (UniProt P53778); assay: Inhibition of p38-gamma (unknown origin) at 0.45 uM relative to control
# Chain of Mitogen-activated protein kinase 12 (Homo sapiens) (P53778 whole entry): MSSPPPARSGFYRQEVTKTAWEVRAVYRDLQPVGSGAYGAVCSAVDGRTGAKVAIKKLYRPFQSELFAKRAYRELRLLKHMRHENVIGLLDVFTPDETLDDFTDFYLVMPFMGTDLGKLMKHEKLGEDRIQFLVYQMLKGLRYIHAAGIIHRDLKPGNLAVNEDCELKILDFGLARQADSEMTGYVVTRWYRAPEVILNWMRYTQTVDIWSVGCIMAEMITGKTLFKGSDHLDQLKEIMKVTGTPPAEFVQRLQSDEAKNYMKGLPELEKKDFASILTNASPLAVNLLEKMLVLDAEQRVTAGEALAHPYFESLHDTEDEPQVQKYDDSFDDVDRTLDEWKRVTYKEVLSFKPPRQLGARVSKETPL
# [32] = target: Cyclin-dependent kinase 1/cyclin B1 (Homo sapiens) (UniProt P06493+P14635); assay: Inhibition of CDK1/CyclinB (unknown origin) at 0.45 uM relative to control; assay type: protein-complex assay
# [33] = target: Platelet-derived growth factor receptor beta (Homo sapiens) (UniProt P09619); assay: Inhibition of PDGFR beta (unknown origin) at 0.45 uM relative to control
# [34] = target: Inhibitor of nuclear factor kappa-B kinase subunit beta (Homo sapiens) (UniProt O14920); assay: Inhibition of IKK-beta (unknown origin) at 0.45 uM relative to control
# Chain of Serine/threonine-protein kinase MARK1 (Homo sapiens) (Q9P0L2 whole entry, looked up, canonical isoform): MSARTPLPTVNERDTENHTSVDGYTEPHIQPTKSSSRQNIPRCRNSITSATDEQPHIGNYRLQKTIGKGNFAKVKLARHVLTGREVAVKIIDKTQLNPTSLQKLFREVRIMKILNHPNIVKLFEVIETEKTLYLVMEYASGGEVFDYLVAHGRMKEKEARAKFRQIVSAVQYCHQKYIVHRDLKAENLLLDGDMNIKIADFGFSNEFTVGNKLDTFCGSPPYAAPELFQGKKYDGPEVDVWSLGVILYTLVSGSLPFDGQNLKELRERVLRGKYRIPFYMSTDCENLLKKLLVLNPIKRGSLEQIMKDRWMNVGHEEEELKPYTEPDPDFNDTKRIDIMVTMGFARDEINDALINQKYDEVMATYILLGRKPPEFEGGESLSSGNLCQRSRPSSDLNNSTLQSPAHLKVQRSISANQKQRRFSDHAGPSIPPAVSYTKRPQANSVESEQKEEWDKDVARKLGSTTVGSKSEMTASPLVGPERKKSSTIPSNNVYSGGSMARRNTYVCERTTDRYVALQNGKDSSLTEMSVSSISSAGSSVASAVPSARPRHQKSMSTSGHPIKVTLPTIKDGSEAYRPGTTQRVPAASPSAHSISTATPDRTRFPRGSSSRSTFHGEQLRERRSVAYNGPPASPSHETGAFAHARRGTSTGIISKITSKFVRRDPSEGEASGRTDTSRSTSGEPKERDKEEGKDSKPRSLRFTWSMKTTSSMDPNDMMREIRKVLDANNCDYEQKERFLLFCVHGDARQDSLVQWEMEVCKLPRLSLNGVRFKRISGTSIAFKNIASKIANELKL
structure (smiles),measurement,setting,value
Cc1[nH]nc(C2CC2)c1-c1ccc2c(NC(=O)C3CC3)noc2c1,inhibition,[1],3.3%
same,inhibition,[2],6.7%
same,inhibition,[3],-3%
same,inhibition,[4],2.3%
same,inhibition,[5],2.3%
same,inhibition,[6],1.7%
same,inhibition,[7],0.7%
same,inhibition,[8],7.3%
same,inhibition,[9],-0.7%
same,inhibition,[10],6%
same,inhibition,[11],2.3%
same,inhibition,[12],0.3%
same,inhibition,[13],1.7%
same,inhibition,[14],6.7%
same,inhibition,[15],6.7%
Cc1n[nH]c(C)c1-c1ccc2c(NC(=O)c3ccc(N4CCN(C)CC4)cc3)n[nH]c2c1,inhibition,[16],-0.7%
same,inhibition,[17],36.7%
same,inhibition,[18],19.7%
same,inhibition,[19],31%
same,inhibition,[20],9.3%
same,inhibition,[21],4%
same,inhibition,[22],3%
same,inhibition,[23],21.3%
same,inhibition,[24],3.7%
same,inhibition,[25],-1%
same,inhibition,[26],-2.7%
same,inhibition,[27],-3%
same,inhibition,[28],2.3%
same,inhibition,[29],3%
same,inhibition,[30],57.7%
same,inhibition,[31],0%
same,inhibition,[32],5.3%
same,inhibition,[33],78.3%
same,inhibition,[34],2.3%
